Series [1] relates to Staphylococcus epidermidis. The series can be described thus: Disc diffusion antimicrobial susceptibility test, Staphylococcus epidermidis. It is filed as cell-based. On the set-up: key to Inhibition diameter: -: no growth of the organism. How it is done:
(§1) The plates were incubated for 24 h at 37 °C.

In the next series the test system is Micrococcus Luteus. As to the kind of experiment: Disc diffusion antimicrobial susceptibility test, Micrococcus luteus. On the set-up: key to Inhibition diameter: -: no growth of the organism. The settings on record: for zone of inhibition at 25000 µg/mL / zone of inhibition at 50000 µg/mL / zone of inhibition at 100000 µg/mL / zone of inhibition at 200000 µg/mL / zone of inhibition at 400000 µg/mL / zone of inhibition at 600000 µg/mL / zone of inhibition at 800000 µg/mL: Micrococcus luteus, 24 h, read-out: Inhibition diameter. Type of series: cell-based.

Another series relates to Escherichia coli. The series can be described thus: Disc diffusion antimicrobial susceptibility test, Escherichia coli. It is filed as cell-based. On the set-up: key to Inhibition diameter: -: no growth of the organism. The method, then: as §1
The nature of series [2]: Thermogravimetric analysis (thermal stability). The settings on record: for TDTGmax, maximum decomposition temperature: DTG, air atmosphere, 10 °C min−1. The method, then:
The thermal stabilities of the obtained NSAIDs isopropyl ester amino acid salts were investigated. […] The beginning of thermal degradation was evaluated based on the value of onset of the TG curve, which occurs in the first phase of the process. […]
Thermogravimetric analysis (TG)
Thermogravimetric analysis was carried out using Netzsch Proteus Thermal Analy- […]
Samples of 5–8 mg were loaded in Al2O3 […]
ment was performed in an air atmosphere (25 cm3min−1) with nitrogen flow (10 cm3min−1) […]
Differential scanning calorimetry (DSC)
Phase transformation temperatures were determined on a PerkinElmer DSC-7 (Rot-gau, Germany). The samples of 3–5 mg were loaded on the aluminum pan with a crimped lid. Measurements were carried out in a nitrogen atmosphere (20 cm3 min-1). The rate of heating/cooling was 5°C min-1. […]
tained for 30 min inside the furnace, then cooled to 0°C to condition the sample and the crucible. After that, heating was conducted to the specified temperature, followed by cool-ing. Unless otherwise stated, two complete cycles of heating and cooling were performed.
The specified maximum temperature was individual for each compound, determined from TG analysis, and it was at least 10°C lower than the onset decomposition tempera-ture. Temperatures reported from DSC data are curve peaks, the melting points being endothermic upon heating and crystallization point being exothermic upon cooling. Lead, indium, tin, and zinc were used as standards to calibrate the temperature. Indium was used for enthalpy measurement calibration. […]

The mark [3] stands for this setting: solution transferred to disc 25 mg cm^−3.
Setting [4] is: solution transferred to disc 50 mg cm^−3.
Setting [5] is: solution transferred to disc 100 mg cm^−3.
The mark [6] stands for this setting: solution transferred to disc 200 mg cm^−3.
[7] abbreviates: solution transferred to disc 400 mg cm^−3.
The mark [8] stands for this setting: solution transferred to disc 600 mg cm^−3.
Setting [9] is: solution transferred to disc 800 mg cm^−3.
The mark [10] stands for this setting: solution transferred to disc 1000 mg cm^−3.

Experimental findings from PMC9693575, “Isopropyl Amino Acid Esters Ionic Liquids as Vehicles for Non-Steroidal Anti-Inflammatory Drugs in Potential Topical Drug Delivery Systems with Antimicrobial Activity” (International Journal of Molecular Sciences, 2022) are described below.

As for `CC(C(=O)O)c1cccc(C(=O)c2ccccc2)c1.CSCCC(N)C(=O)OC(C)C` (mixture of isomers) [[L-MetOiPr][KETO], L-methionine isopropyl ester ketoprofenate], the Inhibition diameter result in series [1] (setting [3]), in series [1] (setting [4]), in series [1] (setting [5]), in series [1] (setting [6]), in series [1] (setting [7]) and in series [1] (setting [8]) was “-” in each case. Also, the Inhibition diameter entry in series [1] (setting [9]) was “-”; in series [1] (setting [10]) it was 7.4 ± 0.2 mm; with Micrococcus Luteus (setting [3]) it was “-”; with Micrococcus Luteus (setting [4]) it was 7.2 ± 0.2 mm; in the series with Micrococcus Luteus (setting [5]) it was 8.2 ± 0.2 mm; in the series on Micrococcus Luteus (setting [6]), 8.5 ± 0.3 mm. The Inhibition diameter in the series with Micrococcus Luteus (setting [7]) is 9.2 ± 0.1 mm; in the series with Micrococcus Luteus (setting [8]), 9.6 ± 0.2 mm; with Micrococcus Luteus (setting [9]) it was 12.4 ± 0.2 mm; with Micrococcus Luteus (setting [10]), 14.3 ± 0.2 mm; with Escherichia coli (setting [3]), “-”; in the series on Escherichia coli (setting [4]), “-”. The Inhibition diameter amounted to 7.3 ± 0.5 mm with Escherichia coli (setting [5]); 8.0 ± 0.6 mm with Escherichia coli (setting [6]); 8.9 ± 0.5 mm in the series on Escherichia coli (setting [7]); 10.6 ± 0.7 mm in the series on Escherichia coli (setting [8]); 12.9 ± 0.4 mm in the series with Escherichia coli (setting [10]).
For the molecule `CC(C(=O)O)c1cccc(C(=O)c2ccccc2)c1.CC(C)OC(=O)C(N)C(C)O` (mixture of isomers) [[L-ThrOiPr][KETO], L-threonine isopropyl ester ketoprofenate], the “inhibition zone (in words)” value in series [1] (S. epidermidis, tested concentrations) is given as “no inhibition zone was observed”. The Inhibition diameter entry in series [1] (setting [3]), in series [1] (setting [4]), in series [1] (setting [5]), in series [1] (setting [6]), in series [1] (setting [7]) and in series [1] (setting [8]) was “-” in each case. The Inhibition diameter entry is reported as “-” in series [1] (setting [9]); “-” in series [1] (setting [10]); “-” with Micrococcus Luteus (setting [3]); “-” in the series with Micrococcus Luteus (setting [4]); “-” in the series on Micrococcus Luteus (setting [5]); 7.4 ± 0.3 mm in the series with Micrococcus Luteus (setting [6]). Besides, the Inhibition diameter in the series with Micrococcus Luteus (setting [7]) is reported as 9.6 ± 0.1 mm; in the series with Micrococcus Luteus (setting [8]), 14.3 ± 0.2 mm; in the series with Micrococcus Luteus (setting [9]) it was 15.4 ± 0.2 mm; in the series with Micrococcus Luteus (setting [10]), 17.4 ± 0.1 mm; in the series on Escherichia coli (setting [3]), “-”; with Escherichia coli (setting [4]), “-”. Also, the Inhibition diameter result with Escherichia coli (setting [5]), in the series with Escherichia coli (setting [6]), in the series with Escherichia coli (setting [7]), with Escherichia coli (setting [8]) and with Escherichia coli (setting [10]) was “-” in each case.
In the case of `CC(C(=O)O)c1cccc(C(=O)c2ccccc2)c1.CC(C)OC(=O)C(N)C(C)C` (mixture of isomers) [[L-ValOiPr][KETO]], the Inhibition diameter result in series [1] (setting [3]) was “-”; in series [1] (setting [4]) it was “-”; in series [1] (setting [5]), “-”; in series [1] (setting [6]), “-”; in series [1] (setting [7]), 6.2 ± 0.1 mm; in series [1] (setting [8]), 6.3 ± 0.1 mm. Besides, the Inhibition diameter in series [1] (setting [9]) turned out to be 6.3 ± 0.2 mm; in series [1] (setting [10]) it was 6.9 ± 0.2 mm; in the series with Micrococcus Luteus (setting [3]), 6.3 ± 0.2 mm; in the series on Micrococcus Luteus (setting [4]) it was 7.4 ± 0.1 mm; with Micrococcus Luteus (setting [5]), 8.5 ± 0.3 mm; in the series with Micrococcus Luteus (setting [6]) it was 9.1 ± 0.3 mm. Moreover, the Inhibition diameter in the series with Micrococcus Luteus (setting [7]) is reported as 10.3 ± 0.2 mm; with Micrococcus Luteus (setting [8]), 11.7 ± 0.1 mm; in the series with Micrococcus Luteus (setting [10]), 15.1 ± 0.2 mm; in the series on Escherichia coli (setting [3]), “-”; in the series on Escherichia coli (setting [4]) it was “-”; with Escherichia coli (setting [5]), “-”. For the same molecule, the Inhibition diameter in the series with Escherichia coli (setting [6]) is 6.7 ± 0.3 mm; in the series on Escherichia coli (setting [7]), 7.0 ± 0.2 mm; in the series on Escherichia coli (setting [8]), 7.6 ± 0.3 mm; with Escherichia coli (setting [10]), 8.3 ± 0.4 mm.
With `CC(C)Cc1ccc(C(C)C(=O)O)cc1` (racemic) [IBU, (R,S)-ibuprofen, reference compound], the zone of inhibition at 25000 µg/mL in series [1] (Staphylococcus epidermidis, 24 h, solution transferred to disc 25 mg cm^−3, read-out: Inhibition diameter) turned out to be 10.8 ± 0.3 mm; in the series with Micrococcus Luteus (setting [3]), 8.6 ± 0.3 mm. The zone of inhibition at 50000 µg/mL in series [1] (Staphylococcus epidermidis, 24 h, solution transferred to disc 50 mg cm^−3, read-out: Inhibition diameter) was found to be 11.5 ± 0.3 mm; in the series with Micrococcus Luteus (setting [4]) it was 9.4 ± 0.2 mm. Besides, the zone of inhibition at 100000 µg/mL was found to be 14.9 ± 0.3 mm in series [1] (Staphylococcus epidermidis, 24 h, solution transferred to disc 100 mg cm^−3, read-out: Inhibition diameter) and 9.7 ± 0.2 mm in the series on Micrococcus Luteus (setting [5]). The zone of inhibition at 200000 µg/mL was found to be 15.3 ± 0.3 mm in series [1] (Staphylococcus epidermidis, 24 h, solution transferred to disc 200 mg cm^−3, read-out: Inhibition diameter) and 10.2 ± 0.1 mm in the series with Micrococcus Luteus (setting [6]). Also, the zone of inhibition at 400000 µg/mL turned out to be 16.4 ± 0.2 mm in series [1] (Staphylococcus epidermidis, 24 h, solution transferred to disc 400 mg cm^−3, read-out: Inhibition diameter) and 10.6 ± 0.1 mm in the series with Micrococcus Luteus (setting [7]). Moreover, the zone of inhibition at 600000 µg/mL in series [1] (Staphylococcus epidermidis, 24 h, solution transferred to disc 600 mg cm^−3, read-out: Inhibition diameter) came out at 17.6 ± 0.2 mm; in the series with Micrococcus Luteus (setting [8]), 11.5 ± 0.2 mm. Further, the zone of inhibition at 800000 µg/mL worked out at 18.6 ± 0.2 mm in series [1] (Staphylococcus epidermidis, 24 h, solution transferred to disc 800 mg cm^−3, read-out: Inhibition diameter) and 12.7 ± 0.2 mm with Micrococcus Luteus (setting [9]). Besides, the “TTGonset, the onset of the thermal degradation” value in series [2] turned out to be 186.2 °C. The “TDTGmax, maximum decomposition temperature” value in series [2] turned out to be 218.8 °C. For the same molecule, the Inhibition diameter result in the series on Escherichia coli (setting [3]), with Escherichia coli (setting [4]), in the series on Escherichia coli (setting [5]), in the series with Escherichia coli (setting [6]), in the series on Escherichia coli (setting [7]) and in the series with Escherichia coli (setting [8]) was “-” throughout. The Inhibition diameter result in the series on Escherichia coli (setting [10]) is listed as “-”.
Take `COc1ccc2cc([C@H](C)C(=O)O)ccc2c1` [NAP, S-(+)-naproxen, reference compound]: the Inhibition diameter entry in series [1] (setting [3]), in series [1] (setting [4]), in series [1] (setting [5]), in series [1] (setting [6]), in series [1] (setting [7]) and in series [1] (setting [8]) was “-” each time. Moreover, the Inhibition diameter result (in series [1] (setting [9]); in series [1] (setting [10]); with Escherichia coli (setting [3]); with Escherichia coli (setting [4]); in the series on Escherichia coli (setting [5]); in the series on Escherichia coli (setting [6])) was “-” each time. In addition, the Inhibition diameter result with Escherichia coli (setting [7]), in the series on Escherichia coli (setting [8]) and in the series on Escherichia coli (setting [10]) was “-” throughout. For the same molecule, in the series on Micrococcus Luteus (setting [3]), the zone of inhibition at 25000 µg/mL was determined as 6.2 ± 0.1 mm. Also, the zone of inhibition at 50000 µg/mL with Micrococcus Luteus (setting [4]) was 6.4 ± 0.1 mm. The zone of inhibition at 100000 µg/mL in the series on Micrococcus Luteus (setting [5]) is 6.7 ± 0.1 mm. For the same molecule, the zone of inhibition at 200000 µg/mL with Micrococcus Luteus (setting [6]) stood at 6.8 ± 0.1 mm. For the same molecule, in the series with Micrococcus Luteus (setting [7]), the zone of inhibition at 400000 µg/mL amounted to 7.3 ± 0.2 mm. Further, in the series on Micrococcus Luteus (setting [8]), the zone of inhibition at 600000 µg/mL turned out to be 7.6 ± 0.2 mm. In the series with Micrococcus Luteus (setting [9]), the zone of inhibition at 800000 µg/mL was found to be 8.5 ± 0.2 mm. Further, the “TTGonset, the onset of the thermal degradation” value in series [2] was found to be 224.5 °C. In series [2], the “TDTGmax, maximum decomposition temperature” value amounted to 284.0 °C.
Turning to `CC(C(=O)O)c1cccc(C(=O)c2ccccc2)c1.CC[C@H](C)[C@H](N)C(=O)OC(C)C` [[L-IleOiPr][KETO], L-isoleucine isopropyl ester ketoprofenate], the Inhibition diameter result in series [1] (setting [3]) was “-”; in series [1] (setting [4]), “-”; in series [1] (setting [5]), “-”; in series [1] (setting [6]), “-”; in series [1] (setting [7]), 6.2 ± 0.1 mm; in series [1] (setting [8]), 7.3 ± 0.2 mm. For the same molecule, the Inhibition diameter in series [1] (setting [9]) is recorded as 8.3 ± 0.1 mm; in series [1] (setting [10]), 10.4 ± 0.2 mm; in the series on Micrococcus Luteus (setting [3]), “-”; in the series on Micrococcus Luteus (setting [4]) it was 6.3 ± 0.2 mm; in the series on Micrococcus Luteus (setting [5]), 6.6 ± 0.3 mm; in the series with Micrococcus Luteus (setting [6]), 7.1 ± 0.2 mm. For the same molecule, the Inhibition diameter with Micrococcus Luteus (setting [7]) was 7.3 ± 0.1 mm; in the series on Micrococcus Luteus (setting [8]), 8.3 ± 0.2 mm; with Micrococcus Luteus (setting [9]), 8.4 ± 0.3 mm; in the series with Micrococcus Luteus (setting [10]) it was 9.4 ± 0.2 mm; in the series on Escherichia coli (setting [3]), “-”; in the series on Escherichia coli (setting [4]), “-”. Further, the Inhibition diameter result in the series on Escherichia coli (setting [5]), in the series on Escherichia coli (setting [6]), in the series on Escherichia coli (setting [7]), in the series on Escherichia coli (setting [8]) and in the series on Escherichia coli (setting [10]) was “-” in each case.
